Assay results taken from patent US11814366B2, “Antiviral compounds and use thereof” (UNIVERSITA DEGLI STUDI DI SIENA, priority 2018, dated 2023).
pEC50: −log10 of the molar value.

Tests used:
HIV Strain AD8 = assay: HIV-1 inhibition assay, strain NL(AD8), TZM-bl cells, CPRG readout; type: cell-based
Cytotoxicity, XTT test = conditions: human
HIV Strain NL4-3 = assay: HIV-1 inhibition assay, strain NL4-3, TZM-bl cells, CPRG readout; type: cell-based
Method: The human TZM-bl indicator cell line (obtained from the NIH AIDS reagents program, cat. Nr 8129, www.aidsreagent.org) was maintained at 37° C. and 5% CO2 in Dulbecco's modified Eagle's medium (DMEM) medium containing 10% fetal bovine serum, 50 μg/ml penicillin, and 50 μg/ml streptomycin. The HIV-1 laboratory strains NL (AD8) (NIH AIDS reagents program, cat. Nr, 11346) and NL4.3 (NIH AIDS reagents program, cat. Nr. 114) were titrated as previously reported by Tiberi et al (2014). Briefly, serial 5-fold dilutions of each virus were made in quadruplicate wells in 96-well culture plates, in a total volume of 100 μl of growth medium (DMEM), for a total of 8 dilution steps. Freshly trypsinized cells (20,000 cells in 100 μl of growth medium containing 75 μg/mL DEAE-dextran) were added to each well, and the plates were incubated at 37° C. in a humidified 5% CO2-95% air environment. After 48 h of incubation, the medium was removed and viral infection was quantified using a β-galactosidase (CPRG) assay (Roche). Twenty thousand TZM-bl cells/well were seeded in 96-well plates in complete DMEM supplemented with 30 μg/ml DEAE-dextran (Sigma-Aldrich). Three hundred times the 50% tissue culture infective dose (TCID50)/ml of each strain was pretreated for 1 h at 37° C. with six serial dilutions (10000 nM, 2000 nM, 400 nM, 80 nM, 16 nM, 3.2 nM) and then added to the cells. Vehicle (0.1% dimethyl sulfoxide [DMSO])-treated cells served as a negative control. […] After 2 days, viral infection was quantified using a CPRG assay (Roche cat nr 11379119103). The inhibitory curves were fitted by nonlinear regression, allowing for the calculation of the 50% effective concentration (EC50) using the Prism software. To evaluate the cell toxicity of the compounds, the metabolic XTT [2,3-bis-(2-methoxy-4-nitro-5-sulfophenyl)-2H-tetrazolium-5-carboxanilide] test (Sigma-Aldrich) was performed according to the manufacturer's instructions.

HSV-2 = HSV-2 plaque reduction assay on Vero cells; type: cell-based, Herpes 2 virus (HSV-2); conditions: for SI selectivity index: HSV-2, CC50 divided by EC50; for EC90 / pEC50: Human alphaherpesvirus 2, Vero, HSV-2 infected cells; for EC90: 90% effective concentration; for pEC50: compound mixed with virus 1 hour at 37° C.
ZIKAV = assay: ZIKA virus plaque reduction assay on Vero cells; type: cell-based, Zika virus (PRVABC59); conditions: for SI selectivity index: ZIKAV, CC50 divided by EC50; for pEC50 / EC90: Zika virus, Vero, ZIKAV infected cells
H1N1 = H1N1 inhibition assay on MDCK cells; type: cell-based, Influenza virus H1N1; conditions: for SI selectivity index: H1N1, CC50 divided by EC50; for pEC50 / EC90: Influenza A virus, MDCK, H1N1 infected cells; for pEC50: read-out: EC50; for EC90: read-out: EC90
Method: MDCK cells were pre-plated in 96-well plates. The following day, concentrations of compounds ranging from 50 μM to 0.0001 μM in DMSO were mixed with H1N1 (MOI 0.05 pfu/cell) and incubated for 1 hour at 37° C. The mixtures were subsequently added to the cells for 1 h at 37° C., after a washout, cells were overlaid with MEM for 16 h at 37° C. Cells were then fixed and subjected to specific immunostaining using a Flu A monoclonal antibody (Merck 5001) in order to visualize infected cells. EC50 were calculated by comparing numbers of infected cells in treated and untreated wells. The effective concentration producing 50% reduction in plaque formation (EC50) was determined using Prism software. The selectivity index (SI) was calculated by dividing the CC50 by the EC50 value.

DENV-2 = assay: DENV plaque reduction assay on Huh-7 cells; type: cell-based, Dengue virus; conditions: for SI selectivity index: DENV-2, CC50 divided by EC50; for pEC50: Dengue virus, DENV2, Huh-7, DENV-2 infected cells
Method: The effect of compounds on DENV infection was evaluated by plaque reduction assay. Huh-7 cells were pre-plated 24 h in advance in 24-well plates at a density of 10^5 cells. Concentrations of compounds ranging from 50 μM to 0.0001 μM in DMSO were mixed with DENV-2 (MOI 0.01 pfu/cell) and incubated for 1 hour at 37° C. The mixtures were subsequently added to the cells, which were then incubated at 37° C. for 2 h. The virus inoculum was then removed and the cells washed and overlaid with a medium containing 1.2% methylcellulose (Sigma). After further incubation at 37° C. for 72 h cells were fixed and stained with 0.1% crystal violet in 20% ethanol and viral plaques counted. The effective concentration producing 50% reduction in plaque formation (EC50) were determined using Prism software by comparing drug-treated wells with wells treated with medium and DMSO. The selectivity index (SI) was calculated by dividing the CC50 by the EC50 value.

[1] = Cell viability (MTS) assay, Huh-7 cells; type: cell-based; conditions: human, conditions of the DENV-2 assay (Table 6)
Method: Cell viability was measured using the MITS [3-(4,5-dimethylthiazol-2-yl)-5-(3 carboxy methoxy phenyl)-2-(4-sulfophenyl)-2H-tetrazolium] assay. Cell cultures were seeded in 96-well plates and were incubated with different concentrations of compounds of the invention in triplicate under the same experimental conditions described for the antiviral assays. Cell viability was determined using the CellTiter 96 Proliferation Assay Kit (Promega, Madison, WI, USA) according to the manufacturer's instructions. Absorbances were measured using a Microplate Reader (Model 680, BIORAD) at 490 nm. The effect on cell viability at different concentrations of the compound was expressed as a percentage, by comparing absorbances of treated cells with those of cells incubated with culture medium and equal volumes of vehicle. The 50% cytotoxic concentrations (CC50) and 95% confidence intervals (CIs) were determined using Prism software (Graph-Pad Software, San Diego, CA).

in vitro [2] = conditions: African green monkey
in vitro [3] = conditions: dog
[4] = Human immunodeficiency virus 1, NL43, virus pretreated 1 h at 37° C. with compound
[5] = CC50, conditions of the HSV-2 assay (Table 2)
[6] = CC50, conditions of the ZIKAV assay (Table 3)
[7] = virus pretreated 1 h at 37° C. with compound

O=C(O)c1ccc(-c2ccc(/C=C3\SC(=S)N(Cc4ccc(Cl)cc4)C3=O)[nH]2)cc1O [Compound 7b, (Z)-4-(5-((3-(4-chlorobenzyl)-4-oxo-2-thioxothiazolidin-5-ylidene)methyl)-1H-pyrrol-2-yl)-2-hydroxybenzoic Acid]
pEC50 (HIV Strain AD8; Human immunodeficiency virus 1, virus pretreated 1 h at 37° C. with compound): 6.27 | CC50 (Cytotoxicity, XTT test; TZM-bl cells): > 20 µM

O=C1NC(=S)N(Cc2ccccc2)C(=O)/C1=C\c1ccc(-c2ccc(C(=O)O)c(O)c2)[nH]1 [Compound 15a, (Z)-4-(5-((1-benzyl-4,6-dioxo-2-thioxotetrahydropyrimidin-5(2H)-ylidene)methyl)-1H-pyrrol-2-yl)-2-hydroxybenzoic Acid]
pEC50 (HIV Strain NL4-3; [4]): 6.66 | CC50 (Cytotoxicity, XTT test): > 20 µM

O=C1NC(=S)N(CCc2ccccc2)C(=O)/C1=C/c1ccc(-c2ccc(-c3nnn[nH]3)cc2)[nH]1 [Compound 15c, (Z)-5-((5-(4-(1H-tetrazol-5-yl)phenyl)-1H-pyrrol-2-yl)methylene)-dihydro-3-henethyl-2-thioxopyrimidine-4,6(1H,5H)-dione]
SI selectivity index (HSV-2): >1435 | EC90 (HSV-2): 0.618 µM | pEC50 (HSV-2): 6.68 | SI selectivity index (ZIKAV): >12000 | pEC50 (ZIKAV): 7.59 | EC90 (ZIKAV): 0.365 µM | SI selectivity index (H1N1): >379 | pEC50 (H1N1): 6.10 | EC90 (H1N1): 1.76 µM | SI selectivity index (DENV-2): 20.6 | pEC50 (DENV-2): 5.47 | CC50 [1]: 70 µM | CC50 (in vitro [2]; [5]): > 300 µM | CC50 (in vitro [2]; [6]): > 300 µM | CC50 (in vitro [3]): > 300 µM

N#Cc1ccc(-c2ccc(/C=C3\C(=O)NC(=S)N(CCc4ccccc4)C3=O)[nH]2)cc1 [Compound 15d, 4-(5-((Z)-(tetrahydro-4,6-dioxo-3-phenethyl-2-thioxopyrimidin-5(6H)-lidene)methyl)-1H-pyrrol-2-yl)benzonitrile]
SI selectivity index (HSV-2): >8.7 | EC90 (HSV-2): 88.2 µM | pEC50 (HSV-2): 4.46 | SI selectivity index (ZIKAV): >272.7 | pEC50 (ZIKAV): 5.95 | EC90 (ZIKAV): 26.6 µM | SI selectivity index (H1N1): >12 | pEC50 (H1N1): 4.60 | EC90 (H1N1): 372 µM | CC50 (in vitro [2]; [5]): > 300 µM | CC50 (in vitro [2]; [6]): > 300 µM | CC50 (in vitro [3]): > 300 µM

O=C1NC(=S)N(CCc2ccc(O)cc2)C(=O)/C1=C\c1ccc(-c2ccc(C(=O)O)c(O)c2)[nH]1 [Compound 15f, (Z)-2-hydroxy-4-(5-((1-(4-hydroxyphenethyl)-4,6-dioxo-2-thioxotetrahydropyrimidin-5(2H)-ylidene)methyl)-1H-pyrrol-2-yl)benzoic Acid]
SI selectivity index (DENV-2): 3.6 | pEC50 (DENV-2): 5.11 | CC50 [1]: 28 µM

O=C1NC(=S)N(Cc2ccccn2)C(=O)/C1=C\c1ccc(-c2ccc(-c3nnn[nH]3)cc2)[nH]1 [Compound 15p, (Z)-5-((5-(4-(1H-tetrazol-5-yl)phenyl)-1H-pyrrol-2-yl)methylene)-1-(pyridin-2-ylmethyl)-2-thioxodihydropyrimidine-4,6(1H,5H)-dione]
SI selectivity index (DENV-2): 7.3 | pEC50 (DENV-2): 4.91 | CC50 [1]: 89 µM

O=C1NC(=S)NC(=O)C1=Cc1ccc(-c2cc(C(F)(F)F)ccc2Cl)[nH]1 [Compound 17a, 5-((5-(2-chloro-5-(trifluoromethyl)phenyl)-1H-pyrrol-2-yl)methylene)-2-thioxodihydropyrimidine-4,6(1H,5H)-dione]
CC50 (Cytotoxicity, XTT test): > 20 µM

O=C1NC(=S)NC(=O)C1=Cc1ccc(-c2ccc(C(=O)O)c(O)c2)[nH]1 [Compound 17b, 4-(5-((4,6-dioxo-2-thioxotetrahydropyrimidin-5(2H)-ylidene)methyl)-1H-pyrrol-2-yl)-2-hydroxybenzoic Acid]
pEC50 (HIV Strain NL4-3; [4]): 6.80 | SI selectivity index (HSV-2): >429.8 | EC90 (HSV-2): 7.47 µM | pEC50 (HSV-2): 6.16 | CC50 (in vitro [2]; [5]): > 300 µM | CC50 (Cytotoxicity, XTT test): > 20 µM

O=C(O)c1ccc(-c2ccc(CC3C(=O)NC(=S)N(CCc4ccccc4)C3=O)[nH]2)cc1O (stereo not drawn) [Compound 18, 4-(5-((hexahydro-4,6-dioxo-1-phenethyl-2-thioxopyrimidin-5-yl)methyl)-1H-pyrrol-2-yl)-2-hydroxybenzoic Acid]
SI selectivity index (HSV-2): >417.2 | EC90 (HSV-2): 0.128 µM | pEC50 (HSV-2): 6.15 | SI selectivity index (ZIKAV): >849.8 | pEC50 (ZIKAV): 7.45 | EC90 (ZIKAV): 0.308 µM | SI selectivity index (H1N1): >238 | pEC50 (H1N1): 5.90 | EC90 (H1N1): 14.9 µM | CC50 (in vitro [2]; [5]): > 300 µM | CC50 (in vitro [2]; [6]): > 300 µM | CC50 (in vitro [3]): > 300 µM

Cc1nnc(C(=O)NC(C)(C)c2nc(C(=O)NCc3ccc(F)cc3)c(O)c(=O)n2C)o1 [Ral, raltegravir, reference compound]
pEC50 (HIV Strain NL4-3; [4]): 7.68 | CC50 (Cytotoxicity, XTT test): > 20 µM

maraviroc [reference compound]
pEC50 (HIV Strain AD8; [7]): 7.44 | pEC50 (HIV Strain NL4-3; [7]): < 4.70
